Measured values: article PMC11855827, “High-Throughput Screening of Five Compound Libraries for Anthelmintic Activity and Toxicity Leads to the Discovery of Two Flavonoid Compounds” (International Journal of Molecular Sciences, 2025)
Where “and” joins values, the source holds several entries; their conditions need not be identical. Equal entries are not always repeated. Where two headings read alike, the source gives them in different places.

Columns and labels:
C. elegans [1] = tested on: C. elegans
C. elegans [2] = test: microbe, parasite or virus in culture; settings: Caenorhabditis elegans
[3] = Table S2, C. elegans SS assay, 110 μM, averages of 4 data points
[4] = 0 h, read-out: Percentage of motility inhibition 0 h, Table S2, C. elegans SS assay, 110 μM, 0 h, averages of 4 data points
[5] = 24 h, read-out: Percentage of motility inhibition 24 h, Table S2, C. elegans SS assay, 110 μM, 24 h, averages of 4 data points
[6] = 0 h, read-out: Percentage of motility inhibition 0 h
[7] = 24 h, read-out: Percentage of motility inhibition 24 h

| SMILES | Percentage of motility inhibition 24 h (C. elegans [1]; [3]) | inhibition at 110 µM (C. elegans [2]; [4]) [%] | inhibition at 110 µM (C. elegans [2]; [5]) [%] | also measured |
| --- | --- | --- | --- | --- |
| CC(C)(O)[C@H]1O[C@H]2CC[C@@]3(C)[C@@](O)(CC[C@H]4Cc5c([nH]c6ccccc56)[C@@]43C)C2=CC1=O [Paxilline] | 0% and 8% | 12 | – | – |
| O=c1c(-c2ccc(O)cc2)coc2cc(O)ccc12 [Daidzein] | 10% | – | 14 | – |
| Cc1ccc(C(C)C)cc2c(C)ccc1-2 [Guaiazulene] | – | – | 24 | Percentage of motility inhibition 24 h (C. elegans [1]; 110 µM): 12% |
| CC1(C)[C@@H](O)CC[C@]2(C)[C@H]3C(=O)C=C4[C@H]5C[C@@](C)(C(=O)O)CC[C@]5(C)CC[C@@]4(C)[C@]3(C)CC[C@@H]12 [18α-Glycyrrhetinic acid] | 10% | – | 18 | – |
| CC[C@@]1(O)C(=O)OCc2c1cc1n(c2=O)Cc2cc3ccccc3nc2-1 [Camptothecin] | 3% | 25 | 6 | – |
| CC[C@H]1OC(=O)[C@H](C)[C@@H](O[C@H]2C[C@@](C)(OC)[C@@H](O)[C@H](C)O2)[C@H](C)[C@@H](O[C@@H]2O[C@H](C)C[C@H](N(C)C)[C@H]2O)[C@](C)(O)C[C@@H](C)C(=O)[C@H](C)[C@@H](O)[C@]1(C)O [Erythromycin] | – | – | 5 | Percentage of motility inhibition 0 h (C. elegans [1]; [3]): 10% and 0% |
| CC(C)=CCC/C(C)=C/CC/C(C)=C/CC/C=C(\C)CC/C=C(\C)CCC=C(C)C [Squalene] | – | 4 | 11 | Percentage of motility inhibition 24 h (C. elegans [1]; 110 µM): 19% |
| COc1ccc2c(c1O)-c1c(OC)c(OC)cc3c1[C@H](C2)N(C)CC3 [Isocorydine] | 7% | 0 | – | – |
| CC[C@H]1[C@@H]2C[C@H]3[C@@H]4N(C)c5ccccc5[C@]45C[C@@H]([C@H]2[C@H]5O)N3[C@@H]1O [Ajmaline] | – | 19 | – | Percentage of motility inhibition 0 h (C. elegans [1]; [3]): 13% |
| C=C(C)[C@@H]1CC[C@]2(C(=O)O)CC[C@]3(C)[C@H](CC[C@@H]4[C@@]5(C)CC[C@H](O)C(C)(C)[C@@H]5CC[C@]43C)[C@@H]12 [Betulinic acid] | – | 27 | – | Percentage of motility inhibition 0 h (C. elegans [1]; [3]): 22% |
| C=C1CC[C@@H]2[C@](C)(CO)[C@H](O)CC[C@@]2(C)[C@@H]1C/C=C1/C(=O)OC[C@H]1O [Andrographolide] | 19% | – | 17 | – |
| COc1ccc2cc1Oc1ccc(cc1)C[C@H]1c3cc(c(OC)cc3CCN1C)Oc1c(OC)c(OC)cc3c1[C@H](C2)N(C)CC3 [Tetrandrine] | – | – | 16 | Percentage of motility inhibition 24 h (C. elegans [1]; 110 µM): 12% |
| COC(=O)[C@H]1[C@H]2C[C@@H]3c4[nH]c5ccccc5c4CCN3C[C@H]2C[C@@H](OC(=O)c2cc(OC)c(OC)c(OC)c2)[C@@H]1OC [Deserpidine] | 23% | – | 21 | – |
| O=c1cc(-c2ccccc2)oc2cc(O)c(O)c(O)c12 [Baicalein] | – | 10 | 12 | Percentage of motility inhibition 0 h (C. elegans [1]; 110 μM): 14%; Percentage of motility inhibition 24 h (C. elegans [1]; 110 µM): 19% |
| C[C@H]1C(=O)O[C@@H]2CCN3CC=C(COC(=O)[C@](C)(O)[C@]1(C)O)[C@H]23 [Monocrotaline] | 15% | – | 12 | Percentage of motility inhibition 0 h (C. elegans [1]; [3]): 2% |
| CC12CCC(CC1=O)C2(C)C (centres unmarked) [Camphor] | 10% | 0 | 5 | – |
| CCn1cc(C(=O)O)c(=O)c2ccc(C)nc21 [Nalidixic acid] | 26% | 27 | 18 | Percentage of motility inhibition 0 h (C. elegans [1]; [3]): 22% |
| CNCC(O)c1ccc(O)cc1 (centres unmarked) [Synephrine] | 24% | 16 | – | – |
| COC(=O)C[C@](O)(CCCC(C)(C)O)C(=O)O[C@@H]1C(OC)=C[C@]23CCCN2CCc2cc4c(cc2[C@H]13)OCO4 [Homoharringtonine] | 2% and 0% | 20 | – | Percentage of motility inhibition 0 h (C. elegans [1]; [3]): 12% |
| CC[C@@]1(O)C(=O)OCc2c1cc1n(c2=O)Cc2cc3cc(O)ccc3nc2-1 [(S)‐10‐Hydroxycamptothecin] | – | 0 | 0 | – |
| CSCC1CN(/N=C/c2ccc([N+](=O)[O-])o2)C(=O)O1 (centres unmarked) [Nifuratel] | – | 0 | 4 | – |
| COc1ccc(CCC(=O)c2c(O)cc(O[C@@H]3O[C@H](CO)[C@@H](O)[C@H](O)[C@H]3O[C@@H]3O[C@@H](C)[C@H](O)[C@@H](O)[C@H]3O)cc2O)cc1O [Neohesperidin dihydrochalcone] | – | 10 | 2 | – |
| Nc1ncnc2[nH]cnc12 [Adenine] | – | – | – | inhibition at 110 µM (C. elegans [2]; [6]): 0%; inhibition at 110 µM (C. elegans [2]; [7]): 3% |
| CCCOc1ccc2nc(NC(=O)OC)[nH]c2c1 [Oxibendazole] | – | 17 | 28 | – |
| C=C(CC[C@@H](C(=O)O)[C@H]1[C@H](O)C[C@@]2(C)C3=CC[C@@H](C(=C)C)[C@](C)(CCC(=O)O)C3=CC[C@]12C)C(C)C [Poricoic acid A] | – | – | – | inhibition at 110 µM (C. elegans [2]; [6]): 2%; inhibition at 110 µM (C. elegans [2]; [7]): 8% |
